Patent publication EP0049797A2, “Anthelminticum containing 2-(2,3-dimethyl-phenoxy-methyl)-2-imidazoline” (BAYER AG, priority 1980, dated 1982)
Read-outs that look alike come from different tables or passages of the source.

Key:
[1] = system: Haemonchus contortus normaler Stamm; test: Stomach and intestinal worm test in sheep (faecal egg count reduction), normal strain; type: in vivo, Schaf; settings: read-out: Dosis effectiva minima (Red. 90 % in mg/kg)
From the text: (§1) Magen- und Darmwurmtest/Schaf
(§2) Experimentell mit Haemonchus contortus infizierte Schafe wurden nach Ablauf der Präpatenzzeit der Parasiten behandelt. Die Wirkstoffmenge wurde als reiner Wirkstoff in Gelatinekapseln oral appliziert oder in einem geeigneten Lösungsmittel gelöst und subcutan oder dermal appliziert.
(§3) Der Wirkungsgrad wird dadurch bestimmt, daß man die mit dem Kot ausgeschiedenen Wurmeier vor und nach der Be-handlung quantitativ auszählt.
(§4) Ein völliges Sistieren der Eiausscheidung nach der Behandlung bedeutet, daß die Würmer abgetrieben wurden oder so geschädigt sind, daß sie keine Eier mehr produzieren können (Dosis effectiva). Geprüfte Wirkstoffe und wirksame Dosierungen (dosis effectiva minima) sind aus der nachfolgenden Tabelle ersichtlich.

[2] = system: Haemonchus contortus gegen Benz-imidazole resistenter Stamm; test: Stomach and intestinal worm test in sheep (faecal egg count reduction), benzimidazole-resistant strain; type: in vivo, Schaf; settings: read-out: Dosis effectiva minima (Red. 90 % in mg/kg), per os, experimentally infected sheep
From the text: as §1, §2, §3, §4

[3] = per os, experimentally infected sheep, normaler Stamm

Compound	minimal effective dose ([1]; dermal, experimentally infected sheep, normaler Stamm)	minimal effective dose [1, 3]	minimal effective dose ([1]; subcutan, experimentally infected sheep, normaler Stamm)	minimal effective dose [2]	minimal effective dose [1]
Cc1cccc(OCC2=NCCN2)c1C [2-(2,3-Dimethyl-phenoxymethyl)-2-imidazolin]	1 mg/kg	0.5 mg/kg	0.5 mg/kg	–	–
CCCSc1ccc2nc(NC(=O)OC)[nH]c2c1 [Albendazol]	–	–	–	5 mg/kg	0.5 mg/kg
CCCCc1ccc2[nH]c(NC(=O)OC)nc2c1 [Parbendazol]	–	–	–	10 mg/kg	1 mg/kg
c1ccc2[nH]c(-c3cscn3)nc2c1 [Thiabenzol]	–	25 mg/kg	–	250 mg/kg	–
